In general, IC50 refers to the point on the concentration scale where inhibition reaches its midpoint. The low end stands for higher potency, the high end for lower potency.

In one experiment the test system is KRAS G12V dependent lung adenocarcinoma cell line, NCI-H441. As to the kind of experiment: Cellular pERK (Thr202/Tyr204) FRET/HTRF assay. The experiment is classed as cell-based. The settings on record: Homo sapiens, NCI-H441, cellular pERK (Thr202/Tyr204) HTRF, NCI-H441 cells. Put shortly:
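NCI-H441 cells (KRAS G12V) plated overnight at 37 °C, then exposed to compounds for 1 hr at 37 °C, 5% CO2; DMSO as negative control. Lysates read by Eu-cryptate/d2 sandwich FRET (665 nm) for ERK1/2 phosphorylated at Thr202/Tyr204; IC50 from curve fit.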
On the technique in general: TR-FRET usually uses a lanthanide donor and a delayed reading to cut background.
Regarding `[2H]C([2H])(Oc1nc(N2CCOC[C@H]3[C@H](F)[C@H]32)c2cnc(-c3cc(O)cc(C)c3C(F)(F)F)c(F)c2n1)[C@@]12CCCN1C[C@H](F)C2` [Example 335, 3-(8-fluoro-4-((1S,7S,8S)-8-fluoro-5-oxa-2-azabicyclo[5.1.0]octan-2-yl)-2-(((2R,7aS)-2-fluorotetrahydro-1H-pyrrolizin-7a(5H)-yl)methoxy-d2)pyrido[4,3-d]pyrimidin-7-yl)-5-methyl-4-(trifluoromethyl)phenol], the IC50 was < 50 nM.

On to `C#Cc1c(C(F)(F)F)ccc2cccc(-c3ncc4c(N5CCOC[C@H]6[C@H](F)[C@H]65)nc(OC[C@]56C[C@@H](F)CN5C[C@@H](CN)C6)nc4c3F)c12` [Example 336, ((2R,6R,7aS)-7a-(((7-(8-ethynyl-7-(trifluoromethyl)naphthalen-1-yl)-8-fluoro-4-((1S,7S,8S)-8-fluoro-5-oxa-2-azabicyclo[5.1.0]octan-2-yl)pyrido[4,3-d]pyrimidin-2-yl)oxy)methyl)-6-fluorohexahydro-1H-pyrrolizin-2-yl)methanamine], for which the half-inhibitory concentration (IC50) was 500 to 10000 nM.

With `[2H]C([2H])(Oc1nc(N2CCOC[C@H]3[C@H](F)[C@H]32)c2cnc(-c3cc(N)cc4ccc(Cl)c(C#C)c34)c(F)c2n1)[C@@]12CCCN1[C@H](C)[C@H](F)C2` [Example 337, 6-chloro-5-ethynyl-4-(8-fluoro-2-(((2R,3R,7aS)-2-fluoro-3-methyltetrahydro-1H-pyrrolizin-7a(5H)-yl)methoxy-d2)-4-((1S,7S,8S)-8-fluoro-5-oxa-2-azabicyclo[5.1.0]octan-2-yl)pyrido[4,3-d]pyrimidin-7-yl)naphthalen-2-amine], the IC50 is < 50 nM.

As for `[2H]C([2H])(Oc1nc(N2CCOC[C@H]3[C@H](F)[C@H]32)c2cnc(-c3cc(N)cc4cccc(C#C)c34)c(F)c2n1)[C@@]12CCCN1[C@H](C)[C@H](F)C2` [Example 338, 5-ethynyl-4-(8-fluoro-2-(((2R,3R,7aS)-2-fluoro-3-methyltetrahydro-1H-pyrrolizin-7a(5H)-yl)methoxy-d2)-4-((1S,7S,8S)-8-fluoro-5-oxa-2-azabicyclo[5.1.0]octan-2-yl)pyrido[4,3-d]pyrimidin-7-yl)naphthalen-2-amine], the IC50 is < 50 nM.

`[2H]C([2H])(Oc1nc(N2CCOC[C@@H]3[C@@H](Cl)[C@@H]32)c2cnc(-c3cc(N)cc4ccc(Cl)c(C#C)c34)c(F)c2n1)[C@@]12CCCN1[C@H](C)[C@H](F)C2` [Example 345, 6-chloro-4-(4-((1R,7R,8R)-8-chloro-5-oxa-2-azabicyclo[5.1.0]octan-2-yl)-8-fluoro-2-(((2R,3R,7aS)-2-fluoro-3-methyltetrahydro-1H-pyrrolizin-7a(5H)-yl)methoxy-d2)pyrido[4,3-d]pyrimidin-7-yl)-5-ethynylnaphthalen-2-amine]: the IC50 is 500 to 10000 nM.

`[2H]C([2H])(Oc1nc(N2CCOC[C@@H]3[C@@H](Cl)[C@@H]32)c2cnc(-c3cc(N)cc4cccc(C#C)c34)c(F)c2n1)[C@@]12CCCN1[C@H](C)[C@H](F)C2` [Example 346, 4-(4-((1R,7R,8R)-8-chloro-5-oxa-2-azabicyclo[5.1.0]octan-2-yl)-8-fluoro-2-(((2R,3R,7aS)-2-fluoro-3-methyltetrahydro-1H-pyrrolizin-7a(5H)-yl)methoxy-d2)pyrido[4,3-d]pyrimidin-7-yl)-5-ethynylnaphthalen-2-amine] came in with an IC50 of 500 to 10000 nM.

In turn, `C#Cc1c(F)ccc2cc(N)cc(-c3ncc4c(N5CCOC[C@@H]6[C@@H](Cl)[C@@H]65)nc(OC[C@]56CC(=C)CN5CCC65CC5)nc4c3C)c12` [Example 347, 4-(4-((1R,7R,8R)-8-chloro-5-oxa-2-azabicyclo[5.1.0]octan-2-yl)-8-methyl-2-(((R)-6′-methylenetetrahydrospiro[cyclopropane-1,1′-pyrrolizin]-7a′(5′H)-yl)methoxy)pyrido[4,3-d]pyrimidin-7-yl)-5-ethynyl-6-fluoronaphthalen-2-amine] gave an IC50 of 500 to 10000 nM.

For `[2H]C([2H])(Oc1nc(N2CCOC[C@H]3[C@H](Cl)[C@H]32)c2cnc(-c3cc(N)cc4cccc(C#C)c34)c(F)c2n1)[C@@]12CCCN1[C@H](C)[C@H](F)C2` [Example 348, 4-(4-((1S,7S,8S)-8-chloro-5-oxa-2-azabicyclo[5.1.0]octan-2-yl)-8-fluoro-2-(((2R,3R,7aS)-2-fluoro-3-methyltetrahydro-1H-pyrrolizin-7a(5H)-yl)methoxy-d2)pyrido[4,3-d]pyrimidin-7-yl)-5-ethynylnaphthalen-2-amine], the IC50 was < 50 nM.

For `C#Cc1c(F)ccc2cc(N)cc(-c3ncc4c(N5CCOC[C@H]6[C@H](F)[C@H]65)nc(OC[C@]56C/C(=C\F)CN5CCC65CC5)nc4c3F)c12` [Example 362, 5-Ethynyl-6-fluoro-4-(8-fluoro-4-((1S,7S,8S)-8-fluoro-5-oxa-2-azabicyclo[5.1.0]octan-2-yl)-2-(((R,E)-6′-(fluoromethylene)tetrahydrospiro[cyclopropane-1,1′-pyrrolizin]-7a′(5′H)-yl)methoxy)pyrido[4,3-d]pyrimidin-7-yl)naphthalen-2-amine], the half-maximal inhibitory concentration (IC50) is < 50 nM.

Consider `C#Cc1c(F)ccc2cc(N)cc(-c3ncc4c(N5CCOC[C@H]6[C@H](F)[C@H]65)nc(OC[C@]56C/C(=C/F)CN5CCC65CC5)nc4c3F)c12` [Example 363, 5-Ethynyl-6-fluoro-4-(8-fluoro-4-((1S,7S,8S)-8-fluoro-5-oxa-2-azabicyclo[5.1.0]octan-2-yl)-2-(((R,Z)-6′-(fluoromethylene)tetrahydrospiro[cyclopropane-1,1′-pyrrolizin]-7a′(5′H)-yl)methoxy)pyrido[4,3-d]pyrimidin-7-yl)naphthalen-2-amine], for which the IC50 was < 50 nM.

Take `C#Cc1c(F)ccc2cc(N)cc(-c3ncc4c(N5CCOC[C@H]6[C@H](F)[C@H]65)nc(OC[C@]56C[C@@H](F)CN5CCC6=C)nc4c3F)c12` [Example 364, 5-ethynyl-6-fluoro-4-(8-fluoro-2-(((6R,7aR)-6-fluoro-1-methylenetetrahydro-1H-pyrrolizin-7a(5H)-yl)methoxy)-4-((1S,7S,8S)-8-fluoro-5-oxa-2-azabicyclo[5.1.0]octan-2-yl)pyrido[4,3-d]pyrimidin-7-yl)naphthalen-2-amine]: the IC50 was < 50 nM.

As to `[2H]C([2H])(Oc1nc(N2CCOC[C@H]3[C@H](Cl)[C@H]32)c2cnc(-c3cc(N)cc4ccc(C)c(C#C)c34)c(F)c2n1)[C@@]12CCCN1[C@H](C)[C@H](F)C2` [Example 366, 4-(4-((1S,7S,8S)-8-chloro-5-oxa-2-azabicyclo[5.1.0]octan-2-yl)-8-fluoro-2-(((2R,3R,7aS)-2-fluoro-3-methyltetrahydro-1H-pyrrolizin-7a(5H)-yl)methoxy-d2)pyrido[4,3-d]pyrimidin-7-yl)-5-ethynyl-6-methylnaphthalen-2-amine], the IC50 is < 50 nM.

Turning to `C=C1CN2CCC[C@@]2(COc2nc(N3CCCC[C@H]4[C@H](F)[C@H]43)c3cnc(-c4cc(N)cc(Cl)c4C(F)(F)F)c(F)c3n2)C1` [Example 367, 3-chloro-5-(8-fluoro-4-((1S,7R,8S)-8-fluoro-2-azabicyclo[5.1.0]octan-2-yl)-2-(((S)-2-methylenetetrahydro-1H-pyrrolizin-7a(5H)-yl)methoxy)pyrido[4,3-d]pyrimidin-7-yl)-4-(trifluoromethyl)aniline], the IC50 was < 50 nM.

`C=C1CN2CCC[C@@]2(COc2nc(N3CCCC[C@@H]4[C@@H](F)[C@@H]43)c3cnc(-c4cc(N)cc(Cl)c4C(F)(F)F)c(F)c3n2)C1` [Example 368, 3-chloro-5-(8-fluoro-4-((1R,7S,8R)-8-fluoro-2-azabicyclo[5.1.0]octan-2-yl)-2-(((S)-2-methylenetetrahydro-1H-pyrrolizin-7a(5H)-yl)methoxy)pyrido[4,3-d]pyrimidin-7-yl)-4-(trifluoromethyl)aniline]: the IC50 lay within 500 to 10000 nM.

The compound `Nc1cc(Cl)c(C(F)(F)F)c(-c2ncc3c(N4CCCC[C@H]5[C@H](F)[C@H]54)nc(OC[C@@]45CCCN4CC(=C(F)F)C5)nc3c2F)c1` [Example 369, 3-chloro-5-(2-(((S)-2-(difluoromethylene)tetrahydro-1H-pyrrolizin-7a(5H)-yl)methoxy)-8-fluoro-4-((1S,7R,8S)-8-fluoro-2-azabicyclo[5.1.0]octan-2-yl)pyrido[4,3-d]pyrimidin-7-yl)-4-(trifluoromethyl)aniline] displayed an IC50 of 50 to 500 nM.

The experiment is the same for the next values; noted with them: cellular pERK (Thr202/Tyr204) HTRF, NCI-H441 cells.
For `[2H]C([2H])(Oc1nc(N2CCOC[C@H]3[C@H](F)[C@H]32)c2cc(C#N)c(-c3cc(N)cc4ccc(F)c(C#C)c34)c(F)c2n1)[C@@]12CCCN1C[C@H](F)C2` [Example 353, 7-(3-Amino-8-ethynyl-7-fluoronaphthalen-1-yl)-8-fluoro-4-((1S,7S,8S)-8-fluoro-5-oxa-2-azabicyclo[5.1.0]octan-2-yl)-2-(((2R,7aS)-2-fluorotetrahydro-1H-pyrrolizin-7a(5H)-yl)methoxy-d2)quinazoline-6-carbonitrile], the IC50 is < 50 nM.

`[2H]C([2H])(Oc1nc(N2CCOC[C@H]3[C@H](F)[C@H]32)c2cc(Cl)c(-c3cc(N)cc4ccc(F)c(C#C)c34)c(F)c2n1)[C@@]12CCCN1C[C@H](F)C2` [Example 354, 4-(6-chloro-8-fluoro-4-((1S,7S,8S)-8-fluoro-5-oxa-2-azabicyclo[5.1.0]octan-2-yl)-2-(((2R,7aS)-2-fluorotetrahydro-1H-pyrrolizin-7a(5H)-yl)methoxy-d2)quinazolin-7-yl)-5-ethynyl-6-fluoronaphthalen-2-amine]: the IC50 was < 50 nM.

Regarding `[2H]C([2H])(Oc1nc(N2CCOC[C@H]3[C@H](F)[C@H]32)c2cc(F)c(-c3cc(N)cc4ccc(F)c(C#C)c34)c(F)c2n1)[C@@]12CCCN1C[C@H](F)C2` [Example 355, 4-(6,8-difluoro-4-((1S,7S,8S)-8-fluoro-5-oxa-2-azabicyclo[5.1.0]octan-2-yl)-2-(((2R,7aS)-2-fluorotetrahydro-1H-pyrrolizin-7a(5H)-yl)methoxy-d2)quinazolin-7-yl)-5-ethynyl-6-fluoronaphthalen-2-amine], the IC50 was < 50 nM.
